Legend:
Estrogen receptor = target: T1, Estrogen receptor (Homo sapiens, UniProt P03372)
T1 sequence (P03372 whole entry): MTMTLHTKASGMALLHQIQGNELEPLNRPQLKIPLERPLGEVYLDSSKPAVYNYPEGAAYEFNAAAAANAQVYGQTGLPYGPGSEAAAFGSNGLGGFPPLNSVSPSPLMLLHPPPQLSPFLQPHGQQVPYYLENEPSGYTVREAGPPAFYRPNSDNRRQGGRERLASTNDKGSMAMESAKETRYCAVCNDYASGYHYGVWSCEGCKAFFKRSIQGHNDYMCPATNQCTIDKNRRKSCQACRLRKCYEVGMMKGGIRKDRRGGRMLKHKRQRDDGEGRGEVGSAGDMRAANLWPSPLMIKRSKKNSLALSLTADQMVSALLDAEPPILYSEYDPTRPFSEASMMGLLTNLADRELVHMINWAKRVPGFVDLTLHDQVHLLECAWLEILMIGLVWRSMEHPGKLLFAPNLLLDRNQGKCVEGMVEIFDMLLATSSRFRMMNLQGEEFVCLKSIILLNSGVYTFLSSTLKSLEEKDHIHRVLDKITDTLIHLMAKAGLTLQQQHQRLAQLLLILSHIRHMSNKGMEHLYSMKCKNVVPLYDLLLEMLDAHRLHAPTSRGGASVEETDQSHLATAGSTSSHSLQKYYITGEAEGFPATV
Description: Inhibition of fluorescence-labeled 17beta-estradiol binding to ERalpha receptor after 2 hrs by fluorometric analysis

[1] = target: T2, Estrogen receptor (Homo sapiens) (UniProt P03372); experiment: Inhibition of fluorescence-labeled 17beta-estradiol binding to ERalpha receptor at 5 mM after 2 hrs by fluorometric analysis
T2 sequence (whole entry): T1 sequence (P03372 whole entry)

Structure (SMILES) | IC50 (Estrogen receptor) | inhibition [1]
C=C1CC[C@@H](O)[C@]2(C)CC[C@@](O)(C(C)C)[C@H](O)[C@@H]12 | 2.8 mM | 67.3%
COc1ccc2c(c1)OC[C@]1(O)c3cc4c(cc3O[C@H]21)OCO4 | > 5 mM | 36.2%

More lines, now with the values ahead:

IC50 (Estrogen receptor) | inhibition [1] | Structure (SMILES)
0.08 mM | 95.1% | COc1cc(O)c(/C=C\C(C)(C)O)c(O)c1C(=O)/C=C/c1ccc(O)cc1 [CANDIDACHALCONE]
3.5 mM | 70.1% | COc1cc(O)c(/C=C\C(C)(C)O)c2c1C(=O)C[C@@H](c1ccccc1)O2 [TEPHROCANDIDIN A]
1 mM | 86.2% | COc1cc(O)c(/C=C\C(C)(C)O)c2c1C(=O)CC(c1ccc(O)cc1)O2 (stereo not given) [TEPHROCANDIDIN B]

— ChEMBL document CHEMBL1781994, “Estrogenic activity of chemical constituents from Tephrosia candida” (J Nat Prod, 2011)
